According to patent US20070117182A1, “Nucleic acids conferring transcriptional responsiveness on the RANKL gene promoter and uses thereof” (Wisconsin Alumni Research Foundation, priority 2005, published 2007):

Experiments:
Assay type in all cases: cell-based, mouse
[1] = tested on: RANKL; assay: RT-PCR of RANKL transcripts in treated ST2 cells; conditions: treated up to 24 hours, agent alone, vs beta-actin controls
Procedure: FIG. 2. Induction of RANKL in ST2 cells by hormones and cytokines. ST2 cells were treated with the agents indicated for periods up to 24 hours. Total RNA was isolated and subjected to RT-PCR using a primer set to mouse RANKL and beta-actin. Positive vitamin D target control genes include Cyp24 and osteopontin (OPN).
The inventors first established a model in which RANKL is both induced in response to 1,25(OH)2D3, PTH (forskolin) and oncostatin M (OSM), and is capable of supporting osteoclast formation when co-cultured with bone marrow monocyte- or spleen cell-derived osteoclast precursors. While a number of cell types express RANKL and induce osteoclastogenesis, the historical literature strongly supports mouse ST2 cells in this capacity, prompting the inventors to focus on this stromal/preosteoblastic line for initial studies. […] Each of these components is known to both induce RANKL expression and promote osteoclast formation as well. […] Indeed, GC effects are widely observed. […] The ability of GCs to enhance osteoclast formation in coculture assays in the presence of 1,25(OH)2D3, however, is likely due also to its coordinate ability to suppress OPG.

[2] = tested on: D5 region of the RANKL gene (RL-CCL); assay: pTK-RL(D5) luciferase reporter in ST2 cells; conditions: 24 hours; for luciferase activity via D5 (RL-CCL), TK promoter: agent alone
Procedure: FIG. 6. Transcriptional activity of the D5 regions of the RANKL gene in the context of the TK promoter. Sequence surrounding the D5 region (1072 bp) was cloned into the pTK-luciferase vector and termed pTK-RL(D5). […] Cells were harvested after 24 hours and luciferase activity assessed. B) ST2 cells were transfected as in A above but without the VDR expression vector and evaluated as in A. C) COS-7 cells were transfected and evaluated as in A above. Luciferase was normalized using beta-gal activity. Data represent the mean of triplicate determinations (SEM). The pTK-luc control vector was unresponsive to any of the inducers (see FIG. 9). *, p<0.05 vs no treatment control.
FIG. 11. […] A) Coordinates of the RL-D5 and the RL-D5b regions in the mouse RANKL upstream region. ST2 cells were transfected with either B) pTK-luc or pTK-mRL-D5 or C) pTK-luc and pTK-mRL-D5b and then treated with the indicated inducers. Cells were harvested after 24 hours and evaluated for luciferase activity. Luciferase was normalized using β-gal activity. Data represent the mean of triplicate determinations (SEM). *, p<0.05 vs no treatment control. **, p<0.05 vs no treatment and 1,25(OH)2D3 treated controls.
The activity of an enhancer must be evaluated in the context of its local environment, preferentially in the context of both other enhancers and its native promoter. In the case of the RANKL gene, however, this is clearly not possible due to the numbers and the distant locations of the potential regulatory regions. To tackle this problem, the inventors isolated approximately 800 to 1100 bp fragments of each region (D1 to D5) as identified through the ChIP/Chip analysis, cloned each into a luciferase expression vector under the control of a viral thymidine kinase (TK) minimal promoter, and explored the 1,25(OH)2D3- and GC-inducible activity of each following transfection into ST2 cells. […] Nevertheless, positive results provide added support for the potential regulatory capabilities of an individual DNA fragment even when examined in isolation. […] This induction was magnified by the addition of a VDR expression vector (FIG. 6a), but was also evident in the absence of such addition (FIG. 6b). […] To ensure that the viral TK promoter background was not contributing to our evaluation, the inventors cloned the mouse RANKL promoter (−100 to +65) into pGL3, inserted RL D5 and evaluated its activity in ST2 cells as well.
Based upon the above data, the inventors explored the possibility that similar to 1,25(OH)2D3, forskolin, PGE2 and OSM might be capable of activating transcription via the D5 fragment of the RANKL gene. […] Cells were harvested 24 hours later and evaluated for luciferase activity as in the previous experiments. […]

[3] = tested on: RANKL gene upstream regions D1-D5; assay: ChIP analysis of transcription factor binding to the RANKL gene in ST2 cells; conditions: 6 hours
Procedure: FIG. 4. Confirmation of ChIP/chip data using ChIP. A) Linear arrangement of RANKL locus re-oriented 5′ to 3′ (left to right) indicating the positions of D5 to D1, P2, and P1/TSS. Designation of primer sets used for detection in ChIP is indicated. B) ST2 cells were treated with either vehicle or 1,25(OH)2D3 and then subjected to ChIP using antibodies to VDR, RXR or IgG. Precipitated DNA was evaluated using the primer sets identified in A.
FIG. 5. […] ST2 cells were treated with the above hormones and after 6 hours subjected to ChIP analysis using antibodies to VDR, RXR, GR, C/EBP, β, RNA pol II, and IgG. Precipitated DNA was evaluated for enrichment of the indicated regions of the RANKL gene.
FIG. 10. ChIP analysis of transcription factor binding to RL D5, the TSS and intervening regions of the RANKL locus in response to 1,25(OH)2D3, forskolin and oncostatin M (OSM). ST2 cells were treated for 6 hr with the indicated inducing agents and then subjected to ChIP analysis using antibodies to the indicated factors. Precipitated DNA was analyzed by PCR for enrichment of IS7, D5, IS6 and the TSS of the RANKL gene locus. See text for details of results.
The isolated DNA was then evaluated by PCR using primers as depicted in the diagram seen in FIG. 4a which were designed to amplify small DNA segments within the 5 regions as well as segments located at intervening sites (IS) outside the five regions.
The inventors hypothesized that GC's might perhaps enhance VDR binding to RANKL regulatory regions. […] The inventors focused on the RL-CCL region (D5) and amplified the precipitated DNA using primers to this region of the gene as well as to D4, D3 and TSS and intervening regions. […] The inventors also explored the possibility that C/EBPbeta might similarly participate in the RANKL activation process. C/EBPbeta plays a significant role in the regulation of osteoblastic genes, and is found associated with both 1,25(OH)2D3 and GC target genes.
In addition to 1,25(OH)2D3 and GCs, RANKL expression is also known to be modulated by such factors as PTH, PGE2, the gp130-activating cytokines IL-6 and OSM, as well as IL-1beta and TNFalpha. […] Forskolin was used as substitute for PTH, however, as ST2 cells are deficient in PTH receptor (PTHR). Both PTH/forskolin and PGE2 are known to induce RANKL gene expression via CREB whereas OSM functions via Stat3. […] The inventors therefore explored the possibility that the RL-CCL might represent a focal target for these inducers via either CREB or Stat3 in the RANKL gene locus. ST2 cells were treated with either vehicle, 1,25(OH)2D3, forskolin or OSM for a 6 hour period and then subjected to a ChIP analysis using antibodies to VDR, C/EBPbeta, CREB, phospho-CREB, ATF-2, ATF-4, Stat3, RNA pol II and control IgG. Isolated DNA was then subjected to amplification using primers corresponding to the D5 region (RL-CCL) of the RANKL gene. As controls, the inventors also assessed the extent to which the immunoprecipitations led to the enrichment of DNA at sites surrounding the D5 region of the RANKL gene.

Row | Compound | RANKL transcripts [1] | luciferase activity via D5 (RL-CCL), TK promoter [2] | CREB binding to the D5 region [3] | Stat3 binding to the D5 region [3] | VDR binding to RANKL regulatory regions (D5) ([3]; agent alone) | increase in transcriptional output via mRL-D5 ([2]; OSM 20 ng/ml) [fold]
1 | TNFalpha | substantial time-dependent increase |  |  |  |  | 
2 | IL-1beta: cytokine known to induce RANKL expression | substantial time-dependent increase |  |  |  |  | 
3 | CCCCC[C@H](O)/C=C/[C@H]1[C@H](O)CC(=O)[C@@H]1C/C=C\CCCC(=O)O [PGE2] | substantial time-dependent increase | not forskolin or PGE2 |  |  |  | 
4 | oncostatin M [OSM] | substantial time-dependent increase | responsive | modestly increased CREB association | induces significant binding of Stat3 | no effect on VDR binding | 3
